Data: US9890432B2, “PRDM14 and FAM19A4, molecular diagnostic markers for HPV-induced invasive cancers and their high-grade precursor lesions” (SELF-SCREEN B.V., priority 2013, dated 2018)
Entries after “also recorded” stand apart in the source; their conditions may differ.

Tested on: PRDM14 mRNA expression in SiHa cervical cancer cells
Assay: PRDM14 mRNA expression in SiHa cells after treatment with a DNA methylation inhibitor
Format: cell-based, human
Conditions: DAC at 0.2 μM and 5 μM, controls PBS and ethanol
Protocol: Treatment of SiHa cervical cancer cells was performed with the methylation inhibitor 2′-deoxy-5′azacytidine (5′-aza or DAC) at 0.2 μM and 5 μM concentration. Other treatments were PBS and ethanol (EtOH). All treatments were in duplicate. Controls are human reference RNA and a -RT control (without reverse transcriptase added to the cDNA reaction mixture).

Nc1ncn([C@H]2C[C@H](O)[C@@H](CO)O2)c(=O)n1 [DAC, 5-aza-2 deoxycytidine]
PRDM14 mRNA expression: upregulated; also recorded: upregulation
